US10851064B2, “ACSS2 inhibitors and methods of use thereof” (METABOMED LTD., priority 2017, dated 2020)
Values joined by “and” are separate entries in the source; they are usually repeats but may differ in a detail not shown here. Equal entries are not always repeated.

How the values were obtained:
ACSS2 [1] = target: T1, ACSS2 (Homo sapiens, UniProt Q9NR19); assay: cell-based
Description: Testing the inhibitory effect of compounds on the cellular activity of ACSS2 was done by tracing the incorporation of ^13C from ^13C-acetate into fatty-acids in MDA-MB-468 cells under hypoxic conditions of 1% 02. The assay was done for 5 hours in DMEM with 5.5 mM glucose, 1 mM sodium Pyruvate, 0.65 mM Glutamine, 3.5 ug/ml Biotin, 1% dialyzed serum, 0.5 mM 13C-acetate and with different concentrations of the inhibitors. At the end of the incubation, the cells were washed with cold PBS, harvested into glass tubes and undergo saponification. The level of ^13C incorporation into Palmitate was done by LC-MS analysis and the level of inhibition was calculated with PRISM software.

ACSS2 [2] = target: T1, ACSS2; assay: biochemical

T1 sequence (Q9NR19 whole entry): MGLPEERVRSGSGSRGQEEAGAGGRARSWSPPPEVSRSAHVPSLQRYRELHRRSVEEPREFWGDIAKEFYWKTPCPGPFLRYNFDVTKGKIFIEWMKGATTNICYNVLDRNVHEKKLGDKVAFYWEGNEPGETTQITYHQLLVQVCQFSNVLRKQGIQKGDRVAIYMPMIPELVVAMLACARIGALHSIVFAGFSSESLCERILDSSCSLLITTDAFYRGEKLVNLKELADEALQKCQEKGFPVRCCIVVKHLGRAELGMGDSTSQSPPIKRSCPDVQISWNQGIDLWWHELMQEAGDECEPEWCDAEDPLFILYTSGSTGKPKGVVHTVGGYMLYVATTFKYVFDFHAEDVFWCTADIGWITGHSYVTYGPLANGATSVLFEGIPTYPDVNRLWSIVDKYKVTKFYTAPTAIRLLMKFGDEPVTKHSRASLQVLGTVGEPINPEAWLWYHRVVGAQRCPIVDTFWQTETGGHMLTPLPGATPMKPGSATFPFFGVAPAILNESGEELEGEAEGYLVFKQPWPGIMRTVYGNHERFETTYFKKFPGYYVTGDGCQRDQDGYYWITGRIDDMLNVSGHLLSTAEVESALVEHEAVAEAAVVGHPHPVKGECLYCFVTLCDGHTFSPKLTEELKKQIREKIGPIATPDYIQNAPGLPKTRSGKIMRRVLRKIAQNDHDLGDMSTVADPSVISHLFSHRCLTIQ

IC50 (ACSS2 [1]) [nM] | IC50 (ACSS2 [2]) | Compound
0.5 to 50 | – | CC1=NN(c2ccc(C3CC3)cc2)C(=O)C1C(=O)Nc1cccc(C(C)(F)F)c1 (stereo not drawn) [compound 308]
0.5 to 50 | – | CC1=NN(c2ccc(OC3CCC3)cc2)C(=O)C1C(=O)Nc1cccc(C(C)(F)F)c1 (stereo not drawn) [compound 325]
0.5 to 50 | – | CC1=NN(c2ccc(OC(F)F)cc2F)C(=O)C1C(=O)Nc1cccc(C(C)(F)F)c1 (stereo not drawn) [compound 309]
0.5 to 50 | – | COc1ccc(N2N=C(C)C(C(=O)Nc3cccc(C(C)(F)F)c3)C2=O)cc1-c1cnccn1 (stereo not drawn) [compound 332]
0.5 to 50 | – | CC1=NN(c2ccc(OC(F)F)c(-c3ccccn3)c2)C(=O)C1C(=O)Nc1cccc(C(C)(F)F)c1 (stereo not drawn) [compound 327]
0.5 to 50 | – | CCC(C)Oc1ccc(N2N=C(C)C(C(=O)Nc3cccc(C(C)(F)F)c3)C2=O)cc1 (stereo not drawn) [compound 321]
0.5 to 50 | – | COc1cc(N2N=C(C)C(C(=O)Nc3cccc(C(C)(F)F)c3)C2=O)ccc1OC(F)F (stereo not drawn) [compound 311]
0.5 to 50 | – | COc1ccc(N2N=C(C)C(C(=O)Nc3cccc(C(C)(F)F)c3)C2=O)cc1-c1ccccc1 (stereo not drawn) [compound 313]
0.5 to 50 | – | CC1=NN(c2ccc(OC(C)(C)C)cc2)C(=O)C1C(=O)Nc1cccc(C(C)(F)F)c1 (stereo not drawn) [compound 324]
0.5 to 50 | – | CC1=NN(c2ccc(OC(C)C)cc2)C(=O)C1C(=O)Nc1cccc(C(C)(F)F)c1 (stereo not drawn) [compound 318]
0.5 to 50 | – | CC1=NN(c2ccc(OC3CCCC3)cc2)C(=O)C1C(=O)Nc1cccc(C(C)(F)F)c1 (stereo not drawn) [compound 319]
50 to 100 | – | CC1=NN(c2ccc(OC(F)(F)F)cc2)C(=O)C1C(=O)Nc1cccc(C(C)(F)F)c1 (stereo not drawn) [compound 226]
0.5 to 50 | – | CC1=NN(c2ccc(OC3COC3)cc2)C(=O)C1C(=O)Nc1cccc(C(C)(F)F)c1 (stereo not drawn) [compound 326]
0.5 to 50 | – | CC1=NN(c2ccc(OC(F)F)c(-c3cncnc3)c2)C(=O)C1C(=O)Nc1cccc(C(C)(F)F)c1 (stereo not drawn) [compound 316]
0.5 to 50 | – | CC1=NN(c2ccc(OC(F)F)c(-c3cnccn3)c2)C(=O)C1C(=O)Nc1cccc(C(C)(F)F)c1 (stereo not drawn) [compound 328]
– | 1000 to 100000 nM | CCOc1ccc(N2N=C(C)C(C(=O)Nc3cccc(CC)c3)C2=O)cc1 (stereo not drawn) [compound 134, 1-(4-ethoxyphenyl)-N-(3-ethylphenyl)-3-methyl-5-oxo-4,5-dihydro-1H-pyrazole-4-carboxamide]
– | 6 to 100 nM | CC1=NN(c2cc(Cc3ccc(Cl)cc3)cc(-c3cccnc3)c2)C(=O)C1C(=O)Nc1cccc(C(C)(F)F)c1 (stereo not drawn) [compound 384]
– | 0.01 to 6 nM | CC1=NN(c2ccc(OC(C)C)cc2)C(=O)C1C(=O)Nc1cccc(C(C)(F)F)c1 (stereo not drawn) [compound 447]
– | 0.01 to 6 nM | COc1ccc(N2N=C(C)C(C(=O)Nc3cccc(C(C)(F)F)c3)C2=O)cc1-c1cnccn1 (stereo not drawn) [compound 433]
– | 0.01 to 6 nM | CC1=NN(c2ccc(OC(F)F)c(-c3ccncc3)c2)C(=O)C1C(=O)Nc1cccc(C(C)(F)F)c1 (stereo not drawn) [compound 450]
– | 1000 to 100000 nM | COc1ccc(N2N=C(C)C(C(=O)Nc3ccccc3)C2=O)cc1 (stereo not drawn) [compound 197, 1-(4-methoxyphenyl)-3-methyl-5-oxo-N-phenyl-4,5-dihydro-1H-pyrazole-4-carboxamide]

IC50 (ACSS2 [1]) [nM] | IC50 (ACSS2 [2]) | Compound
– | 6 to 100 nM | COc1ccc(N2N=C(C)C(C(=O)Nc3cccc(C(C)(F)F)c3)C2=O)cc1-c1nnc(C)[nH]1 (stereo not drawn) [compound 385]
– | 6 to 100 nM | CC(=O)NS(=O)(=O)c1cc(N2N=C(C)C(C(=O)Nc3cccc(C(C)(F)F)c3)C2=O)ccc1OC(F)(F)F (stereo not drawn) [compound 294]
– | 0.01 to 6 nM | CC1=NN(c2ccc(OC(F)F)cc2F)C(=O)C1C(=O)Nc1cccc(C(C)(F)F)c1 (stereo not drawn) [compound 456]
– | 0.01 to 6 nM | CCCOc1ccc(N2N=C(C)C(C(=O)Nc3cccc(C(C)(F)F)c3)C2=O)cc1 (stereo not drawn) [compound 448]
– | 100 to 1000 nM | CC1=NN(c2ccccc2)C(=O)C1C(=O)Nc1cccc(C(C)C)c1 (stereo not drawn) [compound 100, N-(3-isopropylphenyl)-3-methyl-5-oxo-1-phenyl-4,5-dihydro-1H-pyrazole-4-carboxamide]
– | 0.01 to 6 nM | CC1=NN(c2ccc(OC(F)F)c(-c3cnccn3)c2)C(=O)C1C(=O)Nc1cccc(C(C)(F)F)c1 (stereo not drawn) [compound 437]
– | 6 to 100 nM | COc1ccc(N2N=C(C)C(C(=O)Nc3cccc(-c4ncco4)c3)C2=O)cn1 (stereo not drawn) [compound 245]
– | 6 to 100 nM | CC1=NN(c2cc(Cc3ccccc3Cl)cc(-c3ccccc3)c2)C(=O)C1C(=O)Nc1cccc(C(C)(F)F)c1 (stereo not drawn) [compound 333]
– | 0.01 to 6 nM | CC1=NN(c2ccc(OC(F)F)cc2)C(=O)C1C(=O)Nc1cc(C(C)(F)F)ccc1CO (stereo not drawn) [compound 459]
– | 6 to 100 nM | CC1=NN(c2cccc(C(=O)O)c2)C(=O)C1C(=O)Nc1cccc(-c2ncc[nH]2)c1 (stereo not drawn) [compound 172]
– | 0.01 to 6 nM | CCC(F)(F)c1cccc(NC(=O)C2C(=O)N(c3ccc(OC(F)F)c(-c4nnc(C)[nH]4)c3)N=C2C)c1 (stereo not drawn) [compound 370]
– | 0.01 to 6 nM | COc1cc(N2N=C(C)C(C(=O)Nc3cccc(C(C)(F)F)c3)C2=O)ccc1OC(F)F (stereo not drawn) [compound 454]
– | 1000 to 100000 nM | CC1=NN(c2ccccc2)C(=O)C1C(=O)Nc1cccc(C(=O)O)c1 (stereo not drawn) [compound 116, 3-(3-methyl-5-oxo-1-phenyl-4,5-dihydro-1H-pyrazole-4-carboxamido)benzoic acid]
– | 100 to 1000 nM and 6 to 100 nM | COCc1cccc(NC(=O)C2C(=O)N(c3ccccc3)N=C2C)c1 (stereo not drawn) [compound 103, N-(3-(methoxymethyl)phenyl)-3-methyl-5-oxo-1-phenyl-4,5-dihydro-1H-pyrazole-4-carboxamide]
– | 0.01 to 6 nM | CC1=NN(c2ccc3ccn(Cc4ccccc4)c3c2)C(=O)C1C(=O)Nc1cccc(C(C)(F)F)c1 (stereo not drawn) [compound 367]
– | 0.01 to 6 nM | CC1=NN(c2cccc(C#CCNC(=O)COCCOCCOCC(=O)Nc3cccc4c3C(=O)N(C3CCC(=O)NC3=O)C4=O)c2)C(=O)C1C(=O)Nc1cccc(C(C)(F)F)c1 (stereo not drawn) [compound 380]
– | 0.01 to 6 nM | CC1=NN(c2ccc(OC(F)F)c(-c3nnc(C)o3)c2)C(=O)C1C(=O)Nc1cccc(C(C)(F)F)c1 (stereo not drawn) [compound 429]
– | 1000 to 100000 nM | CCc1cccc(NC(=O)C2C(=O)N(c3ccccc3)N=C2C(F)(F)F)c1 (stereo not drawn) [compound 130, N-(3-ethylphenyl)-5-oxo-1-phenyl-3-(trifluoromethyl)-4,5-dihydro-1H-pyrazole-4-carboxamide]
– | 0.01 to 6 nM | CC1=NN(c2ccc3cc[nH]c3c2)C(=O)C1C(=O)Nc1cccc(C(C)(F)F)c1 (stereo not drawn) [compound 410]
– | 0.01 to 6 nM | CC1=NN(c2ccc(OC(F)F)c(-c3ccccn3)c2)C(=O)C1C(=O)Nc1cccc(C(C)(F)F)c1 (stereo not drawn) [compound 438]
– | 100 to 1000 nM | CCc1cccc(NC(=O)C2C(=O)N(c3ccc(NC(C)=O)cc3)N=C2C)c1 (stereo not drawn) [compound 144, 1-(4-acetamidophenyl)-N-(3-ethylphenyl)-3-methyl-5-oxo-4,5-dihydro-1H-pyrazole-4-carboxamide]

IC50 (ACSS2 [1]) [nM] | IC50 (ACSS2 [2]) | Compound
– | 0.01 to 6 nM | CC1=NN(c2ccc(OC(C)(C)C)cc2)C(=O)C1C(=O)Nc1cccc(C(C)(F)F)c1 (stereo not drawn) [compound 441]
– | 100 to 1000 nM | CCc1cccc(NC(=O)C2C(=O)N(c3ccc(NC(=O)N(C)C)cc3)N=C2C)c1 (stereo not drawn) [compound 155, 1-(4-(3,3-dimethylureido)phenyl)-N-(3-ethylphenyl)-3-methyl-5-oxo-4,5-dihydro-1H-pyrazole-4-carboxamide]
– | 6 to 100 nM | CC1=NN(c2ccc(OC(F)F)cc2)C(=O)C1C(=O)Nc1cccc(C(F)(F)C(C)C)c1 (stereo not drawn) [compound 362]
– | 100 to 1000 nM | CC1=NN(c2ccc(OC(F)F)cc2)C(=O)C1C(=O)Nc1cccc(C(C)(F)C(C)C)c1 (stereo not drawn) [compound 409]
– | 0.01 to 6 nM | CC1=NN(c2ccc(Cc3ccccc3)c(-c3cccnc3)c2)C(=O)C1C(=O)Nc1cccc(C(C)(F)F)c1 (stereo not drawn) [compound 374]
– | 1000 to 100000 nM | CC1=NN(c2ccc(C(F)(F)F)cc2)C(=O)C1C(=O)Nc1ccccc1 (stereo not drawn) [compound 201, 3-methyl-5-oxo-N-phenyl-1-(4-(trifluoromethyl)phenyl)-4,5-dihydro-1H-pyrazole-4-carboxamide]
– | > 100000 nM | CC1=NN(C2CCS(=O)(=O)C2)C(=O)C1C(=O)Nc1ccccc1 (stereo not drawn) [compound 202, 1-(1,1-dioxidotetrahydrothiophen-3-yl)-3-methyl-5-oxo-N-phenyl-4,5-dihydro-1H-pyrazole-4-carboxamide]
– | 100 to 1000 nM | CC1=NN(c2ccc(OC(F)F)cc2)C(=O)C1C(=O)Nc1cccc(C2COC2)c1 (stereo not drawn) [compound 329]
– | 0.01 to 6 nM | COc1ccc(N2N=C(C)C(C(=O)Nc3cccc(C(C)(F)F)c3)C2=O)cc1-c1ccccc1 (stereo not drawn) [compound 452]
– | 6 to 100 nM | CC1=NN(c2ccc(OC(F)F)cc2)C(=O)C1C(=O)Nc1cc(C(C)(F)F)cc2ccoc12 (stereo not drawn) [compound 403]
– | 0.01 to 6 nM | COc1ccc(N2N=C(C)C(C(=O)Nc3cccc(C(C)(F)F)c3)C2=O)cc1O (stereo not drawn) [compound 281]
– | 0.01 to 6 nM | CC1=NN(c2ccc(OC(F)F)c(-c3ncco3)c2)C(=O)C1C(=O)Nc1cccc(C(C)(F)F)c1 (stereo not drawn) [compound 355]
– | 0.01 to 6 nM | CC1=NN(c2ccc(Cc3ccccc3)c(-c3ccccc3)c2)C(=O)C1C(=O)Nc1cccc(C(C)(F)F)c1 (stereo not drawn) [compound 375]
– | 100 to 1000 nM | CC1=NN(c2ccccc2)C(=O)C1C(=O)Nc1ccc2c(c1)CCC2 (stereo not drawn) [compound 209, N-(2,3-dihydro-1H-inden-5-yl)-3-methyl-5-oxo-1-phenyl-4,5-dihydro-1H-pyrazole-4-carboxamide]
– | > 100000 nM | CC1=NN(c2ccccc2)C(=O)C1C(=O)Nc1nccs1 (stereo not drawn) [compound 217, 3-methyl-5-oxo-1-phenyl-N-(thiazol-2-yl)-4,5-dihydro-1H-pyrazole-4-carboxamide]
– | 100 to 1000 nM | CC1=NN(c2ccc(OC(F)F)cc2)C(=O)C1C(=O)Nc1ccc2[nH]ccc2c1 (stereo not drawn) [compound 347]
– | 0.01 to 6 nM | COc1ccc(N2N=C(C)C(C(=O)Nc3cccc(C(C)(F)F)c3)C2=O)c(C(C)(C)C)c1 (stereo not drawn) [compound 460]
– | 0.01 to 6 nM | CC1=NN(c2ccc(OC(F)F)c(-c3ncc(C)o3)c2)C(=O)C1C(=O)Nc1cccc(C(C)(F)F)c1 (stereo not drawn) [compound 415]
– | 1000 to 100000 nM | CC1=NN(c2ccccc2)C(=O)C1C(=O)Nc1cccnc1 (stereo not drawn) [compound 191, 3-methyl-5-oxo-1-phenyl-N-(pyridin-3-yl)-4,5-dihydro-1H-pyrazole-4-carboxamide]
– | 100 to 1000 nM | CC1=NN(c2ccc(OC(F)F)cc2)C(=O)C1C(=O)N(C)c1cc(C)cc(Cl)c1 (stereo not drawn) [compound 393]
– | 0.01 to 6 nM | COc1ccc(N2N=C(C)C(C(=O)Nc3cccc(C(C)(F)F)c3)C2=O)cc1-c1cccnc1 (stereo not drawn) [compound 445]
